Laboratory results as given in patent publication US4585773A, “Isoindolinyl-alkyl-piperazines” (Bristol-Myers Company, priority 1984, dated 1986).
Structures can show the parent of a compound that is named as a salt. Where two headings read alike, the source gives them in different places. One block for each molecule: values may come before it.

How the values were obtained:
[1] = conscious rat diuretic screen of Lipschitz (Table I); assay type: in vivo, rat (female Sprague Dawley; male Okamoto-Aoki); details: female Sprague Dawley rats; for response vs control in vivo at 3 mg/kg / response vs control in vivo at 30 mg/kg: Rattus norvegicus, po
Description: With respect to diuretic utility there can be mentioned the conscious rat diuretic screen of Lipschitz, et al. (J. Pharmacol. Exp. Therap. 79, 97-110 (1943)). In this test, dose response assays of diuretic, natruiretic and kaliuretic activity are determined by oral administration of the test substance. The compounds synthesized in Examples I-XI were tested for diuretic […]. The compound of Example I was tested as its monohydrochloride 2-propanolate hydrate, i.e. as C22 […] ClN4 O4 S.HCl. 0.2(CH3)2 CHOH.0.15H2 O. Testing was carried out by the diuretic screen of Lipschitz, et al. described previously. In Table I below Volume Ratio is the ratio of total volume excreted for the test comuound compared to the total volume excreted for the control, Na^+ Ratio is the Na^+ excreted for the test compound compared to the Na^+ excreted for the control, K^+ Ratio is the K^+ excreted for the test compound compared to the K^+ excreted for the control. Female Sprague Dawley rats were used in Test Nos. 1, 2, 6, 7, 11-29. Male Okamoto-Aoki rats were used in Test Nos. 3-5 and 8-10 and testing for antihypertensive activity was carried out simultaneously on the Test Nos. 3-5 rats. In some instances, compounds were retested at the same dose level.

[2] = system: Spontaneously Hypertensive rat; experiment: antihypertensive activity, Spontaneously Hypertensive Rat (Table II); assay type: in vivo; details: for ΔBP 2 hours / ΔBP 4 hours / ΔHR 2 hours / ΔHR 4 hours: SHR, 30 mg/kg oral; for antihypertensive effect (in words): conclusion from Table II (SHR, and DOCA for Examples I-IV)
Description: Spontaneously Hypertensive Rat Male rats weighing 300-400 g, previously conditioned to the procedure, are prewarmed in a heating chamber (30° C.) for 10-20 min. and subsequently restrained in a wire holder at that temperature. Systolic blood pressure and heart rate are measured by the tailcuff technique using a pneumatic pulse transducer and a biotachometer before, and 2, 4, and 24 hours after oral administration of vehicle (0.25% Methocel in water) or test compounds suspended in vehicle at a dose volume equivalent to 5 ml/kg. Blood pressure and heart rate data are reported as changes from zero-hour measurements with vehicle control groups run periodically to confirm that the vehicle has no effect. Testing was carried out on the compounds of Examples I-XII for antihypertensive activity. In the case of all the compounds testing was carried out on the Spontaneously Hypertensive rat as described hereinbefore. In the case of the compounds of Examples I-IV testing was also carried out on the DOCA-salt Hypertensive Rat. The compound of Example I was tested as its monochloride 2-propanolate hydrate, i.e. as C22 […] ClN4 O4 S.HCl.0.2(CH3)2 CHOH.0.15H2 O in Tests 1-5; and as the 3/4 mole hydrochloride, i.e. C22 […] ClN4 O4 S: 3/4 HCl in Tests 3a, 4a, 5a-5d. Test results are set forth in Table II below wherein SHR stands for Spontaneously Hypertensive rat, DOCA stands for DOCA-salt Hypertensive Rat, ΔBP stands for the change in systolic blood pressure in mm Hg, ΔHR stands for the change in mean heart rate in beats per minute and the times set forth are the times after dosing. A peak change in ΔBP of more than 20 is considered as indicating activity.

[3] = system: DOCA-salt Hypertensive Rat; experiment: antihypertensive activity, DOCA-salt Hypertensive Rat (Table II); assay type: in vivo; details: DOCA
Description: DOCA-salt Hypertensive Rat
Male rats initially weighing 80-100 g, are made hypertensive by surgically implanting two 50 mg pellets of deoxycorticosterone acetate (DOCA) under the skin of the abdomen of each rat and providing 1% saline ad libitum. After three weeks, the 1% saline is replaced with distilled water. One week later, animals are anesthetized with methoxyflurane and a catheter advanced into the aorta via the left common corotid artery to record mean arterial blood pressure (MABP) and heart rate. The heparin-filled catheter is passed beneath the skin and exteriorized behind the head. Two days later, MABP and heart rate are determined before and four hours after oral administration of vehicle (0.25% Methocel in 0.9% saline) or test compound suspended in vehicle at a dose volume equivalent to 5 ml/kg.
Testing was carried out on the compounds of Examples I-XII for antihypertensive activity. In the case of all the compounds testing was carried out on the Spontaneously Hypertensive rat as described hereinbefore. In the case of the compounds of Examples I-IV testing was also carried out on the DOCA-salt Hypertensive Rat. The compound of Example I was tested as its monochloride 2-propanolate hydrate, i.e. as C22 H27 ClN4 O4 S.HCl.0.2(CH3)2 CHOH.0.15H2 O in Tests 1-5; and as the 3/4 mole hydrochloride, i.e. C22 H27 ClN4 O4 S: 3/4 HCl in Tests 3a, 4a, 5a-5d. Test results are set forth in Table II below wherein SHR stands for Spontaneously Hypertensive rat, DOCA stands for DOCA-salt Hypertensive Rat, ΔBP stands for the change in systolic blood pressure in mm Hg, ΔHR stands for the change in mean heart rate in beats per minute and the times set forth are the times after dosing. A peak change in ΔBP of more than 20 is considered as indicating activity.

α1 = experiment: in vitro α1 binding, [3H]WB-4101 (Table IV); details: [3H]WB-4101, brain tissue, 50 mM Hepes.KOH, pH 7.4; read-out: α1 Binding IC50
Description: (§1) In this Example the compounds of Examples I-XI were tested in vitro for α1 and α2 binding. The compound of Example I was tested as its monochloride 2-propanolate hydrate, i.e. as C22 […] CLN4 O4 S .HCl.0.2(CH3)2 CHOH 0.15H2 O. In the testing specific brain tissues were prepared as sources of binding sites. Aliquots of the washed members are incubated with a low concentration of […]. After incubation at suitable temperature, the reaction mixture is treated to separate the membrane-bound radioligand Radioactivity is measured. Linear regression analysis of the probit value for the percent of binding occurring in the presence of varying concentrations of the compound of interest plotted against the concentration of the compound yields concentrations which inhibit 50% specific binding, the IC50. The assay buffer is 50 mM Hepes.KOH, pH 7.4. The ligand is [^3 H]WB-4101 from New England Nuclear for α1 and [^3 H]Clonidine from New England Nuclear for α2. The results are considered against phentolamine methanesulfonate (Reference) which is considered a good α-binder.

α2 = experiment: in vitro α2 binding, [3H]Clonidine (Table IV); details: for IC50: [3H]Clonidine, brain tissue, 50 mM Hepes.KOH, pH 7.4, read-out: α2 Binding IC50
Description: as §1

[4] = system: α blocking activity (phenylephrine); experiment: in vivo α blocking activity, phenylephrine (PE) as α-agonist (Table III); design: species or system rat; ED50: unit not given beside the values; details: for in vivo α blocking activity (in words): conclusion from Table III
Description: In this example the compounds of Examples I (modified), II, III, V, VI, VII, VIII, IX and XI were tested in rats for in vivo α blocking activity according to methodology described at page 312 of Deitchman, et al., Journal of Pharmacological Methods, 3, 311-321 (1980). In this test phenylephrine (PE below) or norepinephrine (NE below) was administered as an α-agonist to the rats before and after dosing with the test drug and the average interpolated dose or PE/NE effecting a 50 mm Hg increase in mean arterial blood pressure was determined. Table III below records the results. In such Table, ED50 stands for such average interpolated dose and Average Dose Shift stands for the average ratio of ED50 after drug administration to ED50 before drug administration. The compound of Example I was tested as its monochloride 2-propanolate hydrate, i.e. as C22 H27 ClN4 O4 S.HCl 0.2(CH3)2 CHOH.0.15H2 O in Tests 1-5 and as the 3/4 mole hydrochloride, i.e. C22 H27 ClN 4 O4 S.3/4HCL in Tests 2a and 3a. The route was intravenous except in the case of the runs of Test Nos. 2a, 3, 3a, 26-29 the route was oral.

[5] = 3 mg/kg oral, read-out: K+ Ratio
[6] = 3 mg/kg oral, read-out: Na+ Ratio
[7] = 3 mg/kg oral, read-out: Volume Ratio
[8] = 30 mg/kg oral, read-out: K+ Ratio
[9] = 30 mg/kg oral, read-out: Na+ Ratio
[10] = 30 mg/kg oral, read-out: Volume Ratio
[11] = ED50 after/before drug, PE, dose 10, intravenous

IC50 (α1): 4.16 nM | IC50 (α2): 1430 nM
Structure (SMILES): Cc1ccccc1N1CCN(CCCN2Cc3cc(Cl)c(S(N)(=O)=O)cc3C2=O)CC1 [Example IV, 6-Chloro-2,3-dihydro-2-[3-[4-(2-methylphenyl)-1-piperazinyl]propyl]-3-oxo-1H-isoindole-5-sulfonamide]
Urinary Na/K (Test Compound) ([1]; 3 mg/kg oral): 3.49 | response vs control in vivo at 3 mg/kg [1, 5]: 97% | response vs control in vivo at 3 mg/kg [1, 6]: 123% | response vs control in vivo at 3 mg/kg [1, 7]: 104% | response vs control in vivo at 30 mg/kg [1, 8]: 117% | response vs control in vivo at 30 mg/kg [1, 9]: 121% | ΔBP 2 hours [2]: -48 ± 19 mm Hg | ΔBP 4 hours [2]: -53 ± 7 mm Hg | ΔHR 2 hours [2]: -36 ± 5 beats per minute | ΔHR 4 hours [2]: -22 ± 22 beats per minute | antihypertensive effect (in words) [2]: good antihypertensive effect without significantly affecting heart rate | ΔBP 4 hours ([3]; 0.3 mg/kg oral): -8 ± 3 mm Hg | ΔHR 4 hours ([3]; 0.3 mg/kg oral): 13 ± 21 beats per minute | ΔBP 4 hours ([3]; 3 mg/kg oral): -31 ± 7 mm Hg | ΔHR 4 hours ([3]; 3 mg/kg oral): 22 ± 9 beats per minute | ΔBP 4 hours ([3]; 30 mg/kg oral): -79 ± 4 mm Hg | ΔHR 4 hours ([3]; 30 mg/kg oral): 18 ± 13 beats per minute

IC50 (α1): 7.62 nM | α2 binding activity (in words) (α2): α2 binding activity | IC50 (α2): 694 nM
Structure (SMILES): NS(=O)(=O)c1cc2c(cc1Cl)CN(CCCN1CCN(c3cccc(Cl)c3)CC1)C2=O [Example II, 6-Chloro-2-[3-[4-(3-chlorophenyl)-1-piperazinyl]propyl]-2,3-dihydro-3-oxo-1H-isoindole-5-sulfonamide hydrochloride hemihydrate]
Urinary Na/K (Test Compound) ([1]; 30 mg/kg oral): 3.41 | response vs control in vivo at 30 mg/kg [1, 8]: 129% | response vs control in vivo at 30 mg/kg [1, 9]: 143% | response vs control in vivo at 30 mg/kg [1, 10]: 117% | ΔBP 2 hours [2]: -23 ± 4 mm Hg | ΔBP 4 hours [2]: -18 ± 7 mm Hg | ΔHR 2 hours [2]: -18 ± 10 beats per minute | ΔHR 4 hours [2]: -4 ± 16 beats per minute | antihypertensive effect (in words) [2]: good antihypertensive effect without significantly affecting heart rate | ΔBP 4 hours ([3]; 30 mg/kg oral): -33 ± 5 mm Hg | ΔHR 4 hours ([3]; 30 mg/kg oral): 22 ± 17 beats per minute | Average Dose Shift [4, 11]: > 200 | in vivo α blocking activity (in words) [4]: active as in vivo α blockers | ED50 ([4]; iv): 34.0

IC50 (α1): 305 nM | IC50 (α2): 3330 nM
Structure (SMILES): Cl.N#Cc1cccnc1N1CCN(CCCN2Cc3cc(Cl)c(S(N)(=O)=O)cc3C2=O)CC1 [Example VI, 6-chloro-2-[3-[4-(3-cyano-2-pyridinyl)-1-piperazinyl]propyl]-2,3-dihydro-3-oxo-1H-isoindole-5-sulfonamide hydrochloride]
Urinary Na/K (Test Compound) ([1]; 3 mg/kg oral): 3.55 | Urinary Na/K (Test Compound) ([1]; 30 mg/kg oral): 3.90 | response vs control in vivo at 3 mg/kg [1, 5]: 98% | response vs control in vivo at 3 mg/kg [1, 6]: 169% | response vs control in vivo at 3 mg/kg [1, 7]: 153% | response vs control in vivo at 30 mg/kg [1, 8]: 111% | response vs control in vivo at 30 mg/kg [1, 9]: 204% | response vs control in vivo at 30 mg/kg [1, 10]: 174% | ΔBP 2 hours [2]: -17 ± 10 mm Hg | ΔBP 4 hours [2]: -7 ± 11 mm Hg | ΔHR 2 hours [2]: 6 ± 41 beats per minute | ΔHR 4 hours [2]: -10 ± 18 beats per minute | Average Dose Shift [4, 11]: 27 ± 3 | in vivo α blocking activity (in words) [4]: active as in vivo α blockers | Average Dose Shift ([4]; iv): 3 ± 0.2 | ED50 ([4]; iv): 9.8
